# Several values for one entry are separate records, joined by “and”; a condition that tells them apart may be missing. Equal values may be shown once.
# How the values were obtained:
# Assay type in all cases: cell-based, human
# Cytokeratin 6 (CK6) = experiment: Immunohistochemical evaluation of cytokeratin 6 in proto-follicle microtissues; details: Inositol 0.5%, Inositol 0.25% + L-arginine 0.25%, Cyclosporin A 10 ng/mL; result in words
# Protocol: (§1) The reconstituted proto-follicle was obtained by using fibroblast cells and human keratinocytes using the Gravity^PLUS™ method, a system developed by InSphero (InSphero AG, Zurich, Switzerland), which allows the formation of spheroids or micro-tissues of homogeneous size using the hanging drops technology. The micro-tissues were transferred to Gravity^TRAP plates for treatment and control of culture conditions: 37 °C incubator, 5% CO2, suitably saturated atmosphere of the culture medium.
# (§2) In order to assess the biological effect of each of the above compositions on the micro-tissue cultures in question, the following parameters were measured: • Quantification of ATP, as a marker of cell viability. • Morphological evaluation during culture of the proto-follicle, by staining with hematoxylin-eosin (H&E). • Immunohistochemical evaluation of Cytokeratin 6 (CK6), wherein CK6 is a keratin type II present in the skin and the hair follicle, which has an important role in the formation of the intermediate filament and is involved in tissue remodeling during stress phenomena.
# (§3) In order to observe the short- and long-term effect of the compositions mentioned above, the evaluation of the above parameters was made at 24H (T2) and 120H (T6) after the beginning of therapy.
# [1] = tested on: co-spheroidal culture DPF-ORSK; experiment: Morphological evaluation of proto-follicle microtissues by H&E staining; details: Inositol 0.5%, Inositol 0.25% + L-arginine 0.25%
# Protocol: as §1, §2, §3
# type IV collagen (COLIV) = experiment: Semi-quantitative determination of type IV collagen by immunofluorescence (confocal microscopy); details: 120 H; duplicate (one row per replicate); Inositol 0.5%, Inositol + Arginine 0.25% + 0.25%
structure (smiles),measurement,setting,value
O[C@H]1[C@H](O)[C@@H](O)[C@H](O)[C@@H](O)[C@H]1O [Inositol],follicular CK6 expression / proto-hair structure and coloring,Cytokeratin 6 (CK6),not different from those shown by the samples treated with Cyclosporin A
same,morphological qualitative evaluation of micro-tissues (H&E),[1]; T2 (24H),more compact lamellar structure
same,morphological qualitative evaluation of micro-tissues (H&E),"[1]; T6 (120H), Cyclosporin A 10 ng/mL",more compact lamellar structure
same,semi-quantitative analysis of COLIV,type IV collagen (COLIV),69 and 94

# Source: patent publication EP3538062B1, “ASSOCIATION CONSISTING OF INOSITOL AND ARGININE FOR MAINTAINING HOMEOSTASIS OF THE HAIR AND SCALP” (Unifarco S.p.A., priority 2016, dated 2018)
